Experimental data published in patent US20260285850A1, “SUBSTITUTED OXAZOLIDINONES AND IMIDAZOLINONES AS HERBICIDES” (FMC CORPORATION, priority 2023, published 2026).

How the values were obtained:
Type in all cases: in vivo
[1] = system: ducksalad (Heteranthera limosa); assay: Test B flooded paddy test, visual plant response rating 0-100; settings: 250 g ai/ha, Flood, applied to paddy water, evaluated after 13 days
Procedure, shortened: (§1)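 Greenhouse, 13 d. Seedlings at 2-leaf stage, pots flooded to 3 cm, compound delivered into floodwater, water level held constant. Evaluated visually relative to controls.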

rice (Oryza sativa) = assay: as above; settings: 250 g ai/ha, Flood, applied to paddy water, evaluated after 13 days
Procedure, shortened: as §1

[2] = system: sedge, umbrella (small-flower umbrella sedge, Cyperus difformis); assay: as above; settings: 250 g ai/ha, Flood, applied to paddy water, evaluated after 13 days
Procedure, shortened: as §1

[3] = system: barnyardgrass (Echinochloa crusgalli); assay: as above; settings: 250 g ai/ha, Flood, applied to paddy water, evaluated after 13 days
Procedure, shortened: as §1

soybean (Glycine max) [4] = assay: Test A postemergence application, visual injury rating 0-100
Procedure, shortened: (§2)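 Plants were grown in a loam soil-sand blend and treated with test chemical in a non-phytotoxic solvent mixture containing surfactant, either sprayed on soil preemergence or applied postemergence to 2-10 cm plants. After 10 days in a greenhouse, injury was scored visually against untreated controls, 0 meaning no effect and 100 complete control.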

[5] = system: horseweed (Erigeron canadensis); assay: as above
Procedure, shortened: as §2

corn (Zea mays) [6] = assay: as above
Procedure, shortened: as §2

[7] = system: galium (catchweed bedstraw, Galium aparine); assay: as above
Procedure, shortened: as §2

[8] = system: ryegrass, Italian (italian ryegrass, Lolium multiflorum); assay: as above
Procedure, shortened: as §2

[9] = system: oat, wild (wild oat, Avena fatua); assay: as above
Procedure, shortened: as §2

[10] = system: ragweed (common ragweed, Ambrosia artemisiifolia); assay: as above
Procedure, shortened: as §2

[11] = system: palmer (palmer amaranth, palmer pigweed, Amaranthus palmeri); assay: as above
Procedure, shortened: as §2

[12] = system: green foxtail (Setaria viridis); assay: as above
Procedure, shortened: as §2

kochia (Bassia scoparia) [13] = assay: as above
Procedure, shortened: as §2

[14] = system: wheat (Triticum aestivum); assay: as above
Procedure, shortened: as §2

[15] = system: barnyardgrass (Echinochloa crus-galli); assay: as above
Procedure, shortened: as §2

[16] = system: blackgrass (Alopecurus myosuroides); assay: as above
Procedure, shortened: as §2

soybean (Glycine max) [17] = assay: Test A preemergence soil spray, visual injury rating 0-100; settings: 10 days
Procedure, shortened: as §2

corn (Zea mays) [18] = assay: as above; settings: 10 days
Procedure, shortened: as §2

[19] = system: ryegrass, Italian (italian ryegrass, Lolium multiflorum); assay: as above; settings: 10 days
Procedure, shortened: as §2

[20] = system: oat, wild (wild oat, Avena fatua); assay: as above; settings: 10 days
Procedure, shortened: as §2

[21] = system: ragweed (common ragweed, Ambrosia artemisiifolia); assay: as above; settings: 10 days
Procedure, shortened: as §2

[22] = system: palmer (palmer amaranth, palmer pigweed, Amaranthus palmeri); assay: as above; settings: 10 days
Procedure, shortened: as §2

[23] = system: green foxtail (Setaria viridis); assay: as above; settings: 10 days
Procedure, shortened: as §2

kochia (Bassia scoparia) [24] = assay: as above; settings: 10 days
Procedure, shortened: as §2

[25] = system: wheat (Triticum aestivum); assay: as above; settings: 10 days
Procedure, shortened: as §2

[26] = system: barnyardgrass (Echinochloa crus-galli); assay: as above; settings: 10 days
Procedure, shortened: as §2

[27] = system: blackgrass (Alopecurus myosuroides); assay: as above; settings: 10 days
Procedure, shortened: as §2

[28] = 62 g ai/ha, postemergence, 10 days, 0 = no effect, 100 = complete control
[29] = Postemergence, 16 g ai/ha, greenhouse 10 days, 0 no effect, 100 complete control
[30] = 62 g ai/ha, 0 = no effect, 100 = complete control

For `CC(C)OC(=O)C1=CCC(NC(=O)C2(C)CN(c3cc(F)cc(F)c3)C(=O)O2)C1` (stereo not shown) [Compound 100], the “Plant response rating, Ducksalad (0 to 100 scale, 0 is no effect and 100 is complete control)” value [1] was 75, the “Plant response rating, Rice (0 to 100 scale, 0 is no effect and 100 is complete control)” value (rice (Oryza sativa)) was 70 and the “Plant response rating, Sedge, Umbrella (0 to 100 scale, 0 is no effect and 100 is complete control)” value [2] was 95. For the same compound, the “Plant response rating, Barnyardgrass (0 to 100 scale, 0 is no effect and 100 is complete control)” value [3] was 70, the “Soybean plant response rating (0-100)” value (soybean (Glycine max) [4]; [28]) was 70 and the “Soybean plant response rating (0 to 100 scale)” value (soybean (Glycine max) [4]; [29]) was 60. The “Horseweed plant response rating (0-100)” value [5, 28] was 40, the “Horseweed plant response rating (0 to 100 scale)” value [5, 29] was 0 and the “Corn plant response rating (0-100)” value (corn (Zea mays) [6]; [28]) was 100. For the same compound, the “Corn plant response rating (0 to 100 scale)” value (corn (Zea mays) [6]; [29]) was 100, the “Galium plant response rating (0-100)” value [7, 28] was 90 and the “Galium plant response rating (0 to 100 scale)” value [7, 29] was 70. For the same compound, the “Ryegrass, Italian plant response rating (0-100)” value [8, 28] was 90, the “Ryegrass, Italian plant response rating (0 to 100 scale)” value [8, 29] was 70 and the “Oat, Wild plant response rating (0-100)” value [9, 28] was 100. For the same compound, the “Oat, Wild plant response rating (0 to 100 scale)” value [9, 29] was 70, the “Ragweed plant response rating (0-100)” value [10, 28] was 40 and the “Ragweed plant response rating (0 to 100 scale)” value [10, 29] was 0. The “Pigweed, Palmer plant response rating (0-100)” value [11, 28] was 80, the “Pigweed, Palmer plant response rating (0 to 100 scale)” value [11, 29] was 20 and the “Foxtail, Green plant response rating (0-100)” value [12, 28] was 90. For the same compound, the “Foxtail, Green plant response rating (0 to 100 scale)” value [12, 29] was 80, the “Kochia plant response rating (0-100)” value (kochia (Bassia scoparia) [13]; [28]) was 90 and the “Kochia plant response rating (0 to 100 scale)” value (kochia (Bassia scoparia) [13]; [29]) was 80. For the same compound, the “Wheat plant response rating (0-100)” value [14, 28] was 80, the “Wheat plant response rating (0 to 100 scale)” value [14, 29] was 70 and the “Barnyardgrass plant response rating (0-100)” value [15, 28] was 100. The “Barnyardgrass plant response rating (0 to 100 scale)” value [15, 29] was 50, the “Blackgrass plant response rating (0-100)” value [16, 28] was 90 and the “Blackgrass plant response rating (0 to 100 scale)” value [16, 29] was 60. For the same compound, the “Soybean plant response rating” value (soybean (Glycine max) [17]; 16 g ai/ha, 0 to 100 scale) was 0, the “Soybean plant response rating (0-100)” value (soybean (Glycine max) [17]; [30]) was 40 and the “Corn plant response rating” value (corn (Zea mays) [18]; 16 g ai/ha, 0 to 100 scale) was 30. For the same compound, the “Corn plant response rating (0-100)” value (corn (Zea mays) [18]; [30]) was 30, the “Ryegrass, Italian plant response rating” value ([19]; 16 g ai/ha, 0 to 100 scale) was 60 and the “Ryegrass, Italian plant response rating (0-100)” value [19, 30] was 80. For the same compound, the “Oat, Wild plant response rating” value ([20]; 16 g ai/ha, 0 to 100 scale) was 0, the “Oat, Wild plant response rating (0-100)” value [20, 30] was 0 and the “Ragweed plant response rating” value ([21]; 16 g ai/ha, 0 to 100 scale) was 0. The “Ragweed plant response rating (0-100)” value [21, 30] was 0, the “Pigweed, Palmer plant response rating” value ([22]; 16 g ai/ha, 0 to 100 scale) was 90 and the “Pigweed, Palmer plant response rating (0-100)” value [22, 30] was 100. For the same compound, the “Foxtail, Green plant response rating” value ([23]; 16 g ai/ha, 0 to 100 scale) was 80, the “Foxtail, Green plant response rating (0-100)” value [23, 30] was 100 and the “Kochia plant response rating” value (kochia (Bassia scoparia) [24]; 16 g ai/ha, 0 to 100 scale) was 0. The “Kochia plant response rating (0-100)” value (kochia (Bassia scoparia) [24]; [30]) was 100, the “Wheat plant response rating” value ([25]; 16 g ai/ha, 0 to 100 scale) was 50 and the “Wheat plant response rating (0-100)” value [25, 30] was 90. For the same compound, the “Barnyardgrass plant response rating” value ([26]; 16 g ai/ha, 0 to 100 scale) was 30, the “Barnyardgrass plant response rating (0-100)” value [26, 30] was 100 and the “Blackgrass plant response rating” value ([27]; 16 g ai/ha, 0 to 100 scale) was 0. For the same compound, the “Blackgrass plant response rating (0-100)” value [27, 30] was 60.
